Earlier results, collected in US20090239791A1, “PHARMACEUTICAL COMPOSITION CONTAINING LIPOPHILIC SUBSTANCE WHICH INHIBITS IL-2 PRODUCTION” (Astellas Pharma Inc., priority 2007, published 2009).

System: human mixed lymphocyte reaction
Conditions: Transplant Proceedings, No 5, Suppl 6, 36-39, 1987

## C=CC[C@@H]1/C=C(\C)C[C@H](C)C[C@H](OC)C2O[C@@](O)(C(=O)C(=O)N3CCCC[C@H]3C(=O)O[C@H](/C(C)=C/[C@@H]3CC[C@@H](O)[C@H](OC)C3)[C@H](C)[C@@H](O)CC1=O)[C@H](C)C[C@@H]2OC (relative stereo) [Tacrolimus, [3S-[3R*[E(1S*,3S*,4S*)],4S*,5R*,8S*,9E,12R*,14R*,15S*,16R*,18S*,19S*,26aR*]]-5,6,8,11,12,13,14,15,16,17,18,19,24,25,26,26a-hexadecahydro-5,19-dihydroxy-3-[2-(4-hydroxy-3-methoxycyclohexyl)-1-methylethenyl]-14,16-dimethoxy-4,10,12,18-tetramethyl-8-(2-propenyl)-15,19-epoxy-3H-pyrido[2,1-c][1,4]oxaazacyclotricosine-1,7,20,21(4H,23H)-tetrone, monohydrate]
  IC50 (a 50% inhibitory drug concentration in a human mixed lymphocyte reaction): 0.18 ng/mL
